# Reference: patent US20060216775A1, “Compositions and methods for analysis and manipulation of enzymes in biosynthetic proteomes” (priority 2003, published 2006)
# Target: T1, VibB (UniProt P0C6D3+P39135)
# T1 construct: made in house; host or cells: E. coli BL21 (DE3), crude lysate
# Type: biochemical, Vibrio cholera
# Settings: cell lysate of E. coli BL21 producing VibB, recombinant Sfp, SDS-PAGE, UV irradiation
# Description: To investigate PPTase transfer of non-thioester CoA derivatives, Sfp was used for post-translational modification of known, heterologously expressed CP domains (FIG. 11). As a first experiment, VibB was used. VibB is a small protein from the Vibrio cholera vibriobactin biosynthetic machinery that consists of a modular NRP synthase system. VibB contains only one carrier protein domain and as such is a perfect model system due to its small size and facile expression in E. coli. Cell lysate was collected from induced E. coli BL21 cells producing VibB from a pET24 expression vector. An aliquot of this lysate was incubated with CoA-BODIPY derivative and recombinant Sfp and analyzed by SDS-PAGE. […] Coomassie staining of the gel confirmed the band to be fluorescently-tagged VibB (32.6 kD) (FIG. 11C). […]
# One Liter of E. Coli BL21 (DE3) cells induced to express recombinant VibB, FrenACP, OtcACP, and TcmACP, each in pET22b vectors (Novagen, Madison, Wis.), were pelleted, resuspended, and lysed by sonication in 30 mL 0.1 M Tris-Cl pH 8.0 with 1% glycerol in the presence of 500 μL of a 10 mM protease inhibitor cocktail containing bestatin, pepstatin A, E-64, and phosphoramidon (Sigma-Aldrich) and sonicated by pulsing for 5 minutes on ice. […] Protein concentration was determined using the Bradford method with bovine serum albumin (Sigma-Aldrich) as a standard.
# T1 sequence (P39135 whole entry): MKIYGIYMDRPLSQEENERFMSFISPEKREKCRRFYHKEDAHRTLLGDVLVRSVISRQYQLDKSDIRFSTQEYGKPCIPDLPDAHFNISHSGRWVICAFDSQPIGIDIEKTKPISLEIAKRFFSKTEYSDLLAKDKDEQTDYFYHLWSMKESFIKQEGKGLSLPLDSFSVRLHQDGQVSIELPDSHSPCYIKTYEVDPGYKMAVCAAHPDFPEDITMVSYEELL
# T1 sequence (P0C6D3 whole entry): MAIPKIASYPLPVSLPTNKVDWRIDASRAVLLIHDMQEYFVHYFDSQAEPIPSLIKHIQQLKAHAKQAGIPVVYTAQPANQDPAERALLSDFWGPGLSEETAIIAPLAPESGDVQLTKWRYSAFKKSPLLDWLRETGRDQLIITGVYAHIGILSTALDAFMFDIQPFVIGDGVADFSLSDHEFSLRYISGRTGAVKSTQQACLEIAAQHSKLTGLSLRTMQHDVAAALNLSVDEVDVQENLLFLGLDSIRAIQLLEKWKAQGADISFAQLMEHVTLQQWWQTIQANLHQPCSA
structure (smiles),measurement,value
"O=C(O)c1cc(N2C(=O)C=CC2=O)ccc1-c1c2cc(F)c(=O)cc-2oc2cc(O)c(F)cc12 [1b, Oregon Green® 488 maleimide]",fluorescent labeling of VibB,Comparable labeling
